From patent US20100105610A1, “Methods of Inhibiting Tumor Cell Aggressiveness Using the Microenvironment of Human Embryonic Stem Cells” (CHILDREN'S MEMORIAL HOSPITAL, priority 2006, published 2010)

Legend:
[1] = system: C8161 human cutaneous melanoma cells; assay: In vivo tumor formation, C8161 cells injected subcutaneously into nude mice; parameters: species or system mouse; settings: 250,000 Morpholino-treated C8161 cells injected, vs control
Experimental: A microenvironment of human embryonic stem cells (H9 CMTX) was prepared as described above. C8161 human cutaneous melanoma cells were exposed to the H9 CMTX or Matrigel for 3 to 4 days prior to transplantation in a mouse model. Nude immunocompromised mice received an injection of the C8161 cells subcutaneously into the midscapular region (to mimic spontaneous metastatic dissemination found in human cancers). The animals were injected using a 25 or 27-gauge needle with 2.5×10^5 tumor cells/mouse in 0.05 ml RPMI media.
As a corollary to these findings, an orthotopic mouse model was used to examine the effect of Nodal inhibition on melanoma tumor formation. For the experimental tumourigenesis model, 5 week old nude mice (Harlan, Madison, Wis.) were injected subcutaneously with 250,000 C8161 cells, treated with control or anti-Nodal Morpholinos, in 50 μL of complete RPMI. Tumor measurements were taken on days 3, 7, 14 and 17 post-injection, and mice were sacrificed on day 17. For the orthotopic mouse tumor formation studies, statistical significance was determined using the Kruskal-Wallis One Way Analysis of Variance on Ranks, followed by Dunn's method. […]

Nodal = Nodal protein expression, Western blot; assay type: cell-based, human; settings: after administration of anti-Nodal Morpholino
Experimental: (§1) Protein lysates were prepared and quantified as previously described in Hess et al., 2001, Cancer Res. 61:3250-3255. Equal amounts of protein were separated by SDS-polyacrylamide gel electrophoresis under reducing conditions, and the resolved proteins were transferred onto Immobilon-P membranes (Millipore Corp., Bedford, Mass.). Membranes were blocked in 1% TBS, 0.1% Tween 20 (TBS-T) and 5% dry milk powder or 3% gelatin (for Nodal Westerns). Blots were incubated with anti-Nodal or anti-Lefty antibodies (Polyclonal rabbit anti-Nodal (H-110) 1:500 Santa Cruz Biotechnology, Santa Cruz, Calif.; Polyclonal goat anti-Lefty 1:500 R&D Systems, Minneapolis, Minn.), washed in TBS-T, and incubated with the appropriate horseradish peroxidase-labeled secondary antibody. Secondary antibodies were detected by enhanced chemiluminescence (Super Signal; Pierce, Rockford, Ill.) and exposure to autoradiography film (Molecular Technologies, St Louis, Mo.). Nodal protein was detected as two major bands at ˜48 and ˜35 kDa representing precursor and pro-Nodal respectively. Nodal often appeared as multiple bands, likely due to degradation of protein modifications. All experiments were done at least three times.
Conditioned matrices were prepared using hESCs, melanocytes, myoepithelial cells, amniotic fluid derived stem cells, or trophoblast cells on growth factor-reduced Matrigel (14 mg/mL; BD Biosciences) as previously described. Postovit et al., 2006, Stem Cells 24: 501-505. In all cases, cells were 80-100% confluent during the conditioning of the matrix. Alternatively, hESC-derived Lefty protein was seeded into Matrigel prior to polymerization. Human melanoma (C8161) or breast carcinoma (MDA-MB-231) cells, 2.5×10^5 cells/6-well dish, were subsequently exposed to this preconditioned matrix for 3 to 4 days.
as §1, with “primary antibody (Table 2),” for “anti-Nodal or anti-Lefty antibodies (Polyclonal rabbit anti-Nodal (H-110) 1:500 Santa Cruz Biotechnology, Santa Cruz, Calif.; Polyclonal goat anti-Lefty 1:500 R&D Systems, Minneapolis, Minn.),”, “TBS-T or TBS-T containing 0.5M NaCl for the Nodal Westerns,” for “TBS-T,”, “Nodal often appeared as multiple bands, likely due to degradation of protein modifications. All experiments were done at least three times.” left out

For “MO^Nodal: antisense Morpholino to Nodal, 5′-AAGCAGCACCTCCAGCCCTTATATC-3′ (SEQ ID NO: 20) (all phosphorodiamidate morpholino (PMO); further chemistry not fully specified)”, the “diminution of tumor incidence” value [1] was 30%, the tumorigenicity [1] was “significant reduction” and the Nodal expression (Nodal) was “down-regulation”.
